The record followed here is US20140155376A1, “PYRROLOPYRAZINE KINASE INHIBITORS” (Hoffmann-La Roche Inc., priority 2010, published 2014).

pIC50: −log10 of the molar value.

The target of the experiment is T1, JAK3 (recombinant human kinase domain; h-jak3(810-1124)) (Homo sapiens, UniProt P52333).
T1 construct: h-jak3(810- 1124)-sf9-c; made in house; host or cells: Sf9 insect cells
T1 sequence (P52333 810-1124): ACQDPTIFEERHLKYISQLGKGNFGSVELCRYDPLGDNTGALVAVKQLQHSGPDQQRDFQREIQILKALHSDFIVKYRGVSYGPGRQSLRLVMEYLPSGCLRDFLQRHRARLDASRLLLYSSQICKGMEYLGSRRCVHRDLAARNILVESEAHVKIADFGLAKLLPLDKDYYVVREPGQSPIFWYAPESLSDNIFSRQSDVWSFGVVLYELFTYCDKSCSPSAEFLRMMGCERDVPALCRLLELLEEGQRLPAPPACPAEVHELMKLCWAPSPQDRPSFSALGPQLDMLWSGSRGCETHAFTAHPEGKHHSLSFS
Put plainly: Determination of IC50 of Janus Kinase (JAK) inhibition: JAK3, radioactive end-point assay with 33P-ATP. In kind it is biochemical. Particulars: JAK3 kinase domain; ATP 1.5 uM, peptide 50 uM, 20 minutes, room temperature, 10% DMSO; read-out: Ic50 h-jak3(810-1124)-sf9-c:no additive.
Text: Determination of IC50 of Janus Kinase (JAK) Inhibition:
Enzymes and peptide substrate used are described below: • JAK1: Recombinant human kinase domain from Invitrogen (Cat # PV4774) • JAK3: Recombinant human kinase domain from Millipore (Cat #14-629) or prepared. • JAK2: Recombinant human kinase domain from Millipore (Cat #14-640) • Substrate: N-terminally biotinylated 14-mer peptide derived from activation loop of JAK1 with sequence of the peptide substrate: Biotin-[sequence]
Assay Conditions Used are Described Below: • Assay Buffer: JAK Kinase Buffer: 50 mM Hepes [pH 7.2], 10 mM MgCl2, 1 mM DTT, • 1 mg/ml BSA. The assay is carried out in this buffer. • Assay Format The kinase activity of all three JAK kinases is measured using a radioactive, end-point assay and with trace amounts of ^33P-ATP. The assays are carried out in 96-well polypropylene plates.
All concentrations are final in the reaction mixture and all incubations are carried at room temperature. […] Final concentration of DMSO in the reaction is 10%. • 2) Compounds are preincubated with enzyme (0.5 nM JAK3 (commercially available), 0.2 nM JAK3 (prepared), 1 nM JAK2, 5 nM JAK1) for 10 minutes. • 3) Reactions are initiated by the addition of a cocktail of the two substrates (ATP and peptide premixed in the JAK Kinase Buffer). In the JAK2/JAK3 assays, ATP and the peptide are used at concentrations of 1.5 uM and 50 uM, respectively. JAK1 assay is carried out at an ATP concentration of 10 uM and a peptide concentration of 50 uM. • 4) The duration of the assay for JAK2 and JAK3 is 20 minutes. JAK1 assay is carried out for 40 minutes. With all three enzymes, reactions are terminated by the addition of 0.5M EDTA to a final concentration of 100 mM. • 5) 25 ul of terminated reactions are transferred to 150 ul of a 7.5% (v/v) slurry of streptavidin-coated sepharose beads in MgCl2- and CaCl2-free 1× Phosphate Buffered Saline containing 50 mM of EDTA in 96-well, 1.2 um MultiScreen-BV filter plates. • 6) After a 30-minute incubation, the beads are washed under vacuum with the following buffers: • a. 3 to 4 washes with 200 ul of 2M NaCl. • b. 3 to 4 washes with 200 ul of 2M NaCl plus 1% (v/v) phosphoric acid. • c. 1 wash with water. • 7) Washed plates are dried in a 60° C. oven for between 1 to 2 hours. • 8) 70 ul of Microscint 20 scintillation fluid is added to each well of filter plates and after at least 30 minutes of incubation, radioactive counts are measured in a Perkin-Elmer microplate scintillation counter.
Broadly, the pIC50 is −log10 of the IC50, conventionally taken in molar units. As for `C[C@@H](NC(=O)c1c[nH]c2ncc(C3CC3)nc12)C1(C#N)CCCC1` [Example I-100, 2-Cyclopropyl-5H-pyrrolo[2,3-b]pyrazine-7-carboxylic acid [(R)-1-(1-cyano-cyclopentyl)-ethyl]-amide], the pIC50 was 7.41.
Under `C[C@H](NC(=O)c1c[nH]c2ncc(-c3cn(-c4cc(C(F)(F)F)ccc4F)cn3)nc12)C(C)(C)C` [Example I-149, 2-[1-(2-Fluoro-5-trifluoromethyl-phenyl)-1H-imidazol-4-yl]-5H-pyrrolo[2,3-b]pyrazine-7-carboxylic acid ((S)-1,2,2-trimethyl-propyl)-amide] stands 8.52; under `C[C@@H](NC(=O)c1c[nH]c2ncc(C3=CCOCC3)nc12)C(C)(C)O` [Example I-110, 2-(3,6-Dihydro-2H-pyran-4-yl)-5H-pyrrolo[2,3-b]pyrazine-7-carboxylic acid ((R)-2-hydroxy-1,2-dimethyl-propyl)-amide], 7.34.
Consider `C[C@H](NC(=O)c1c[nH]c2ncc(-c3ccc(C(=O)N(C)Cc4ccc(F)cc4)s3)nc12)C(C)(C)C` [Example I-205, 2-{5-[(4-Fluoro-benzyl)-methyl-carbamoyl]-thiophen-2-yl}-5H-pyrrolo[2,3-b]pyrazine-7-carboxylic acid ((S)-1,2,2-trimethyl-propyl)-amide], for which the negative-log IC50 (pIC50) was 9.12.
Then `C[C@H](NC(=O)c1c[nH]c2ncc(C3CC3)nc12)[C@](C)(O)CC1CC1` [Example I-48, 2-Cyclopropyl-5H-pyrrolo[2,3-b]pyrazine-7-carboxylic acid ((1S,2R)-3-cyclopropyl-2-hydroxy-1,2-dimethyl-propyl)-amide], with 6.94.
Regarding `CC[C@@](C)(O)[C@@H](C)NC(=O)c1c[nH]c2ncc(C3CC3)nc12` [Example I-83, 2-Cyclopropyl-5H-pyrrolo[2,3-b]pyrazine-7-carboxylic acid ((1R,2R)-2-hydroxy-1,2-dimethyl-butyl)-amide], the negative-log IC50 (pIC50) is 7.33.
Turning to `CC(NC(=O)c1c[nH]c2ncc(C3CC3)nc12)C1CCCC1` (stereo not shown) [Example I-95, 2-Cyclopropyl-5H-pyrrolo[2,3-b]pyrazine-7-carboxylic acid (1-cyclopentyl-ethyl)-amide], the pIC50 was 8.00.
Then `CC[C@@H](C)NC(=O)c1c[nH]c2ncc(Oc3ccc(F)cc3F)nc12` [Example I-126, 2-(2,4-Difluoro-phenoxy)-5H-pyrrolo[2,3-b]pyrazine-7-carboxylic acid ((R)-sec-butyl)-amide], with 6.72; and `CC(NC(=O)c1c[nH]c2ncc(Oc3ccc(F)cc3)nc12)C1CC1` (stereo not shown) [Example I-113, 2-(4-Fluoro-phenoxy)-5H-pyrrolo[2,3-b]pyrazine-7-carboxylic acid (1-cyclopropyl-ethyl)-amide], with 7.45.
Under `C[C@@H](NC(=O)c1c[nH]c2ncc(C#N)nc12)C(C)(C)O` [Example I-115, 2-Cyano-5H-pyrrolo[2,3-b]pyrazine-7-carboxylic acid ((R)-2-hydroxy-1,2-dimethyl-propyl)-amide] stands 5.48; under `CC(C)NC(=O)c1c[nH]c2ncc(Oc3cccc4ccccc34)nc12` [Example I-241, 2-(Naphthalen-1-yloxy)-5H-pyrrolo[2,3-b]pyrazine-7-carboxylic acid isopropylamide], 6.17; under `CC[C@@](C)(O)[C@H](C)NC(=O)c1c[nH]c2ncc(C3CC3)nc12` [Example I-34, 2-Cyclopropyl-5H-pyrrolo[2,3-b]pyrazine-7-carboxylic acid ((1S,2R)-2-hydroxy-1,2-dimethyl-butyl)-amide], 7.44.
Then `C[C@H](NC(=O)c1c[nH]c2ncc(-c3ccc(C(=O)NCc4cccc(C#N)c4)s3)nc12)C(C)(C)C` [Example I-227, 2-[5-(3-Cyano-benzylcarbamoyl)-thiophen-2-yl]-5H-pyrrolo[2,3-b]pyrazine-7-carboxylic acid ((S)-1,2,2-trimethyl-propyl)-amide], with 7.98; and `C[C@H](NC(=O)c1c[nH]c2ncc(-c3ccc(C(=O)N4CCC(C)(O)CC4)s3)nc12)C(C)(C)C` [Example I-175, 2-[5-(4-Hydroxy-4-methyl-piperidine-1-carbonyl)-thiophen-2-yl]-5H-pyrrolo[2,3-b]pyrazine-7-carboxylic acid ((S)-1,2,2-trimethyl-propyl)-amide], with 10.00.
As to `COc1ccccc1CNC(=O)c1ccc(-c2cnc3[nH]cc(C(=O)N[C@@H](C)C(C)(C)C)c3n2)s1` [Example I-203, 2-[5-(2-Methoxy-benzylcarbamoyl)-thiophen-2-yl]-5H-pyrrolo[2,3-b]pyrazine-7-carboxylic acid ((S)-1,2,2-trimethyl-propyl)-amide], the negative-log IC50 (pIC50) was 9.40.
Then `CC(C)c1cccc(-n2cnc(-c3cnc4[nH]cc(C(=O)N[C@@H](C)C(C)(C)C)c4n3)c2)c1` [Example I-152, 2-[1-(3-Isopropyl-phenyl)-1H-imidazol-4-yl]-5H-pyrrolo[2,3-b]pyrazine-7-carboxylic acid ((S)-1,2,2-trimethyl-propyl)-amide], with 7.60; and `N#CC[C@@H](NC(=O)c1c[nH]c2ncc(C3CC3)nc12)C1CC1` [Example I-135, 2-Cyclopropyl-5H-pyrrolo[2,3-b]pyrazine-7-carboxylic acid ((R)-2-cyano-1-cyclopropyl-ethyl)-amide], with 7.69.
With `CS(=O)(=O)N1CCCC(CNC(=O)c2c[nH]c3ncc(C4CC4)nc23)C1` (stereo not shown) [Example I-108, 2-Cyclopropyl-5H-pyrrolo[2,3-b]pyrazine-7-carboxylic acid (1-methanesulfonyl-piperidin-3-ylmethyl)-amide], the pIC50 is 6.79.
Under `CC(Cn1ccnc1)NC(=O)c1ccc(-c2cnc3[nH]cc(C(=O)N[C@@H](C)C(C)(C)C)c3n2)s1` (stereo partly drawn) [Example I-174, 2-[5-(2-Imidazol-1-yl-1-methyl-ethylcarbamoyl)-thiophen-2-yl]-5H-pyrrolo[2,3-b]pyrazine-7-carboxylic acid ((S)-1,2,2-trimethyl-propyl)-amide] stands 9.66; under `C[C@H](NC(=O)c1c[nH]c2ncc(-c3ccc(C(=O)N[C@H](C)C(C)(C)C)s3)nc12)C(C)(C)C` [Example I-209, 2-[5-((R)-1,2,2-Trimethyl-propylcarbamoyl)-thiophen-2-yl]-5H-pyrrolo[2,3-b]pyrazine-7-carboxylic acid ((S)-1,2,2-trimethyl-propyl)-amide], 9.33; under `COC(C)(C)CNC(=O)c1c[nH]c2ncc(C3CC3)nc12` [Example I-50, 2-Cyclopropyl-5H-pyrrolo[2,3-b]pyrazine-7-carboxylic acid (2-methoxy-2-methyl-propyl)-amide], 8.04.
Then `CC1CCCC(C)N1C(=O)c1ccc(-c2cnc3[nH]cc(C(=O)N[C@@H](C)C(C)(C)C)c3n2)s1` (stereo partly drawn) [Example I-181, 2-[5-(2,6-Dimethyl-piperidine-1-carbonyl)-thiophen-2-yl]-5H-pyrrolo[2,3-b]pyrazine-7-carboxylic acid ((S)-1,2,2-trimethyl-propyl)-amide], with 9.21; and `C[C@H](Cc1ccccc1)NC(=O)c1ccc(-c2cnc3[nH]cc(C(=O)N[C@@H](C)C(C)(C)C)c3n2)s1` [Example I-170, 2-[5-((R)-1-Methyl-2-phenyl-ethylcarbamoyl)-thiophen-2-yl]-5H-pyrrolo[2,3-b]pyrazine-7-carboxylic acid ((S)-1,2,2-trimethyl-propyl)-amide], with 9.24.
Then `CC[C@@H](NC(=O)c1c[nH]c2ncc(C3CC3)nc12)C(C)(C)O` [Example I-44, 2-Cyclopropyl-5H-pyrrolo[2,3-b]pyrazine-7-carboxylic acid ((R)-1-ethyl-2-hydroxy-2-methyl-propyl)-amide], with 7.34.
Take `C[C@H](NC(=O)c1c[nH]c2ncc(-c3ccc(C(=O)N4CC(C#N)C4)s3)nc12)C(C)(C)C` [Example I-178, 2-[5-(3-Cyano-azetidine-1-carbonyl)-thiophen-2-yl]-5H-pyrrolo[2,3-b]pyrazine-7-carboxylic acid ((S)-1,2,2-trimethyl-propyl)-amide]: the pIC50 was 9.49.
Then `CC(C)(CO)CNC(=O)c1c[nH]c2ncc(N3CCC(C)(C)C3)nc12` [Example I-14, 2-(3,3-Dimethyl-pyrrolidin-1-yl)-5H-pyrrolo[2,3-b]pyrazine-7-carboxylic acid (3-hydroxy-2,2-dimethyl-propyl)-amide], with 6.39.
As to `C[C@@H](NC(=O)c1c[nH]c2ncc(C3CC3)nc12)C1(O)CCCC1` [Example I-82, 2-Cyclopropyl-5H-pyrrolo[2,3-b]pyrazine-7-carboxylic acid [(R)-1-(1-hydroxy-cyclopentyl)-ethyl]-amide], the pIC50 was 7.82.
Under `C[C@H](NC(=O)c1c[nH]c2ncc(-c3ccc(C(=O)NCc4ccccn4)s3)nc12)C(C)(C)C` [Example I-166, 2-{5-[(Pyridin-2-ylmethyl)-carbamoyl]-thiophen-2-yl}-5H-pyrrolo[2,3-b]pyrazine-7-carboxylic acid ((S)-1,2,2-trimethyl-propyl)-amide] stands 9.96.
Under `C[C@H](NC(=O)c1c[nH]c2ncc(-c3ccc(C(=O)N[C@H](C)C4CC4)s3)nc12)C(C)(C)C` [Example I-162, 2-[5-((R)-1-Cyclopropyl-ethylcarbamoyl)-thiophen-2-yl]-5H-pyrrolo[2,3-b]pyrazine-7-carboxylic acid ((S)-1,2,2-trimethyl-propyl)-amide] stands 9.49; under `CC(=O)NC1CCN(C(=O)c2ccc(-c3cnc4[nH]cc(C(=O)N[C@@H](C)C(C)(C)C)c4n3)s2)CC1` [Example I-183, 2-[5-[4-Acetylamino-piperidine-1-carbonyl)-thiophen-2-yl]-5H-pyrrolo[2,3-b]pyrazine-7-carboxylic acid ((S)-1,2,2-trimethyl-propyl)-amide], 9.49; under `CC(=O)N1CCC(CNC(=O)c2c[nH]c3ncc(C4CC4)nc23)C1` (stereo not shown) [Example I-137, 2-Cyclopropyl-5H-pyrrolo[2,3-b]pyrazine-7-carboxylic acid (1-acetyl-pyrrolidin-3-ylmethyl)-amide], 6.46.
